# Experimental data: patent US6436705B1, “Shape stabilized erythrocytes” (The United States of America as represented by the …, priority 1997, dated 2002)
# Tests used:
# Human erythrocytes [1] = experiment: Freeze-thaw damage (percentage hemolysis after freezing at −20° C.); type: cell-based; conditions: 5 mM diamide for 1 h at room temperature; 1 h freezing at −20° C.; FIG. 2
# Description: Erythrocytes pre-treated with diamide were frozen immediately or after 3 h of incubation in the freezing medium (glucose 200 mM, raffinose 139 mM, sodium citrate 33 mM, sodium phosphate dibasic 12 mM, sodium phosphate monobasic 2.9 mM, ammonium phosphate 40 mM, adenine 2 mM) to allow loading with glucose. Freezing was carried out at −20° C. in a freezer for […] and samples were thawed in a water bath at room temperature.
# After completion of the freeze-thaw cycle samples were centrifugated. After centrifugation (Eppendorfcentrifuge for 3 min at 3000×g) the supernatants were processed for hemolysis measurements. For determination of hemolysis the Cyanmethemoglobin method was applied. Absorption was read at 540 nm using a Hewlett Packard spectrophotometer. Percentage hemolysis was determined by Equation 1, supra. Percentage hemolysis was taken as a measure for freeze-thaw damage.
# Human erytirocytes were pre-treated at room temperature with 5 mM diamide for 1 h. After the incubation was completed the unreacted reagent was removed by a washing procedure and the cells were re-suspended in a freezing medium. Erythrocytes were frozen immediately or after three hours of incubation in the freezing medium to allow loading with glucose. Percentage hemolysis represents the freeze-thaw damage after 1 h freezing at −20° C. in a freezer.
# Human erythrocytes [2] = experiment: 'gravity-driven' filtration assay of erythrocyte deformability (5 μm pore filter); type: cell-based
# Description: The deformability of erythrocytes after crosslinking with diamide and its reversal with dithioerythritol is measured using a “gravity-driven” filtration assay. Diluted erythrocyte suspensions are passed through a 5 μm pore filter The relative filtration index is determined using the following expression: [formula] […] Human erythrocytes subjected to crosslinking with diamide and subsequent reversal of the crosslinking dithioeiythritol were passed through a 5 μm pore filter. Relative filtration index was determined.
# erythrocytes [3] = experiment: Methemoglobin formation during freeze-drying; type: cell-based; conditions: CO-treated erythrocytes, FIG. 1
# Text: Freeze-drying of hemoglobin leads to the formation of significant amount of methemoglobin. Circular dichroism studies for samples of hemoglobin freeze-dried with or without protectant have shown that the absence of a protector weakly influences the confirmation in the vicinity of the heme and increases the helicity of protein chains (Thirion C et al., 1983). Freeze-drying hemoglobin without denaturing and oxidizing it was made possible by the use of carbohydrates (Labrude PB et al., 1980). […] Since red cell membrane is non-permeable to disaccharides and only lowly permeable to monosaccharides, this limits the use of carbohydrates as protectants for intracellular hemoglobin. We explored CO-treatment as a means to prevent methemoglobin formation during freeze-drying. CO-treatment stabilizes hemoglobin in the CO-hemoglobin form by liganding CO. […] To reverse the CO-treatment, a hollow fiber oxygenator can be used.
# Red cells = experiment: Oxygen carrying ability (oxygen content by CO-oximeter); type: cell-based, human; conditions: cells subjected to CO-treatment
# Description: A semi-quantitative measure of oxygen carrying ability by DTBP cross-linked and reversed cells was performed. Red cells cross linked with 5 mM DTBP for different incubation times and cells reversed with DTT (see above) were processed through a membrane oxygenator to replace CO with oxygen. Oxygen saturation of the cells was measured using a CO-oximeter. After the oxygenation, cells were subjected to deoxygenation under a stream of nitrogen for 30 min. Percentage oxygen was measured again by the CO-oximeter. Oxygen binding and releasing properties for cross-linked, reversed and normal cells were compared.
# We measured oxygen content (Vol%O2) of cells subjected to cross-linking and reversal with a CO-oximeter 282. […] CO-treated and cross-linked cells with 5 mM DTBP for 5 h, which underwent re-oxygenation in the membrane oxygenator had oxygen content of 7.3 Vol%O2.
# erythrocytes [4] = experiment: Assay of capacity for shape change (LPC-induced echinocytosis, microscopy); type: cell-based, human
# Description: Microscopy. Cross-linked and reversed cells were prepared as described in the section on erythrocyte preparation, etc., with the addition of 0.5% bovine serum albumin to the solution prior microscopic examination. Cells were examined using an Nikon Optiphot, equipped with PlanApo 20×objective.
# Assay of capacity for shape change. To induce echinocytosis ([…]), erythrocytes were incubated with 10μg/ml LPC for 2 min at room temperature. Erythrocytes were pretreated with 5 mM DTBP for 1 h and then subjected to 10 μg/ml LPC treatment. Microscopic examination of cell morphology was performed. Erythrocytes were pretreated with 5 mM DTBP for 1 h, reversed with 10 mM DTT for 20 min and then subjected to 10 μg/ml LPC treatment. Microscopic examination followed. Erythrocyte response to LPC of normal, cross-linked and reversed cells was compared.
# Human erythrocytes [5] = experiment: cells; type: cell-based; conditions: Homo sapiens, Erythrocyte, read-out: hemolysis in distilled water after cross-linking reversal
# Description: Packed human erythrocytes from healthy donors were obtained from the National Naval Medical Center (Bethesda, Md.) within 48 h of donation and used within 7 days. Packed erythrocytes were washed twice in phosphate buffer solution (PBS) then re-suspended in PBS (1 vol PBS:1 vol packed cells). The erythrocyte suspension (100 ml) was placed on ice and carbon monoxide (CO) was bubbled through it for 2 hours. Saturation with CO (100%) was achieved under these conditions as detected with a CO-oximeter. Erythrocytes were packed and cross-linked with DTBP at 4° C. for different incubation times (from 1 to 24 h; 9 vol cross-linking solution: 1 vol packed cells). The cross-linking solution was prepared by dissolving DTBP in PBS (pH 7.8). After incubation DTBP was removed by repeated washing of the red cells in PBS (IEC Centra centrifuge for 10 min at 1008×g). Reversal of the cross-linking was carried out at room temperature with the reducing agent dithioerythritol (DTT) at a concentration of 10 mM in PBS (9 vol reducing solution: 1 vol packed cells) for 20 min or as indicated in the figure legends. DTT was removed by repeated washing of the red cells in PBS (IEC Centra centrifuge for 10 min at 1008×g). CO-treatment was reversed at room temperature using a hollow fiber membrane oxygenator model Capiox 308. Erythrocytes were processed through the oxygenator for 1 h. Saturation with oxygen (92%) was reached as detected with a CO-oximeter.
# Erythrocytes were cross-linked with DTBP at different concentrations for different incubation times. 1 ml of the erythrocyte suspension was taken out at regular incubation times centrifuged and DTBP was removed (Eppendorf centrifuge for 3 min at 3000×g). Distilled water (1 ml) was added to the remaining packed cells. After 30 min the cells were again centrifugated (Eppendorf centrifuge for 3 min at 3000×g), and the supernatants were processed for hemolysis measurements. For determination of hemolysis the cyanmethemoglobin method was applied (see Brown in “Hematology: principles and procedures” pp. 29-31 (Lea and Febiger, eds., 1984)). Absorbance was measured at 540 nm and percent hemolysis was determined by Equation (1), supra, where the control sample was lysed in distilled water.
# Erythrocyte stability in distilled water was tested after crosslinking reversal as well. Red blood cells were first cross-linked with DTBP then treated with DTT at different concentrations (from 1 to 10 mM) for different incubation times (from 5 to 20 min). Hemolysis in distilled water was measured as described above.
# Red blood cells [6] = experiment: Deformability measurements with an ektacytometer (Shear-scan, Osmo-scan); type: cell-based, human; conditions: DTBP cross-linked cells after treatment with DTT; Osmo-scan
# Description: Red blood cells were cross-linked with 5 mM DTBP for 1 h. Cross-linking was reversed with 10 mM DTT for 20 min. Deformability measurements were made with fresh untreated, cross-linked, and reversed cells as well as with untreated packed cells stored in CPDA-1 for 6 weeks at 4° C. The effects of cross-linking and reversal on red blood cell deformability were measured with an ektacytometer (Technicon).
# The ektacytometer is a laser diffraction viscometer described in detail by Bessiss and Mohandas. Intact red blood cells and ghosts suspended in solution produce a diffuse circular laser diffraction pattern. The instrument takes advantage of the fact that when a shear force is applied to the solution crossing the beam the cells align in the direction of shear and begin deforming into uniformly oriented ellipsoids. The laser diffraction pattern then takes on an ellipsoidal shape oriented 90° from the major elliptical cell axis, with the ratio of the long axis to the short axis length determined by the degree of cell deformation. A signal proportional to mean cellular ellipticity is derived from photometric measurement of this laser diffraction pattern in the two axis directions and is designated the deformability index (DI).
# Two types of deformability profiles were generated in the present experiments. […] Shear-scans were run with 40 μl of concentrated cell suspension (80% hematocrit) mixed with 3.0 ml of 3.1% (w/v) polyvinylpyrrolidone (P, av-MW 360 kD) solution containing 138 mM NaCl, 6.34 mM Na2HPO4, 2 mM NaH2PO4, and 0.04% (w/v) NaN3 with pH=7.35±0.05, osmolality=290 mOsmol/kg (by freezing point depression), and viscosity=20 cp (assumed). Osmo-scans were run by continuous addition of this suspension medium containing 100 μl of cells to a PVP solution with a graded salt concentration. Salt gradients were made by addition of high salt PVP solution with 386 mM NaCI (osmolality=750 mOsmol/kg) to a low salt PVP solution with 2.5 mM NaCl (osmolality=40 mOsmol/kg). Conductance measurements of the cell suspension in the viscometer provided an indirect measure of osmolality, which was calculated from a standard calibration curve.
# Data was recorded onto a computer, and curves were fitted and plotted using custom routines in Matlab (The Math Works Inc, Natick, Mass.). Shear scans were fitted with a polynomial of degree 6 from which the maximum DI (DImax) was calculated. Osmo-scans were fitted with a running average, and DImax was calculated within the range of 180-240 mOsmol/Kg, along with the osmolality corresponding to 1/2DImax at hypertonic salt concentrations (0′), where DI decreases with increasing intracellular viscosity secondary to cell shrinkage and increased hemoglobin concentration (see Mohandas et al., J. Clin. Invest. 66563-73(1980)). The osmolality corresponding to the minimum DI (Omin) at hypotonic salt concentrations, where DI falls due to cell swelling, was also calculated. The height of the small DI peak thought to be associated with the sudden availability of excess membrane for deformation as intracellular ions and water are lost in the lower range of hypotonic salt (63-125 mOsmol/Kg) concentrations was also recorded (see Clark et al., Blood 61 899-910 (1983)).
# Human erythrocytes [7] = experiment: Osmotic fragility test; type: cell-based; conditions: cells treated for 1 h with 5 mM DTBP, reversed with DTT
# Description: An osmotic fragility test (a common clinical test) was performed on erythrocytes cross-linked with 5 mM DTBP for different incubation times and on erythrocytes cross-linked and reversed with DTT. Briefly, 1 ml of the erythrocyte suspension was taken out at regular incubation times, centrifuged, and DTBP or DTT was removed (Eppendorf centrifuge for 3 min at 3000×g). 1 ml of solutions containing buffered sodium sodium chloride at different concentrations (from 1% to 0.1% NaCl in phosphate buffer) were added to the packed cells. After 30 min the samples were centrifugated (Eppendorf centrifuge for 3 min at 3000×g), and the supernatants were processed for hemolysis measurements.
# Red blood cells [8] = experiment: Metabolic viability: ATP content of red blood cells over time; type: cell-based, human; conditions: cross-linked cells treated with 10 mM DTT prior to initial glucose exposure
# Description: The metabolic viability of cross-linked cells was assayed by monitoring the production and depletion of ATP over time. DTBP cells were cross-linked in 5 mM DTBP 150 mM glucose for 5 hours at 4° C. The cells were then washed 3 times and incubated in 150 mM glucose for an additional 19 hrs. After washing to remove the glucose the cells were incubated at 4° C. in PBS for 72 hrs before being returned to 150 mM glucose for the final 24 hr incubation. At each time point cells were removed, washed, and spectrophotometrically assayed for ATP as described in the text. The glucose controls were cells treated in the same manor but without crosslinking, and the control cells are cells without exposure to glucose.
compound,measurement,setting,value
CN(C)C(=O)/N=N/C(=O)N(C)C [diamide],Percentage hemolysis (freeze-thaw damage),Human erythrocytes [1],cryoprotection of erythrocytes
same,Relative filtration index,"Human erythrocytes [2]; Crosslinking with 5 mM diamide, 5 μm pore filter",0.71 ± 0.03
"[C-]#[O+] [CO, carbon monoxide]",methemoglobin formation during freeze-drying,erythrocytes [3],prevents hemoglobin oxidation to methemoglobin
same,oxygen content,Red cells,0.7 Vol%O2
lysolecithin [LPC],shape change of normal red blood cells,"erythrocytes [4]; 10 μg/ml LPC, normal cells",shape change from discocytes to echinocytes
"O[C@H](CS)[C@@H](O)CS [DTT, dithioerythritol]",hemolysis at 10000 µM,Human erythrocytes [5],100%
same,reversal of shape stabilizing action of DTBP,"erythrocytes [4]; 5 mM DTBP 1 h, 10 mM DTT 20 min, then 10 μg/ml LPC",completely reversible
same,DImax and O′ after reversal,Red blood cells [6],restored these indices towards normal values
same,Omin (osmolality corresponding to the minimum DI),Red blood cells [6],128 mOsmol/Kg
same,reversal of the effect of DTBP on osmotic fragility,Human erythrocytes [7],complete reversal
same,amount of ATP present after reversal,Red blood cells [8],did not change the amount of ATP present
same,Relative filtration index,"Human erythrocytes [2]; diamide-crosslinked cells, reversal of the cross-linking with 5 mM dithioerythritol",0.83 ± 0.02
same,Relative filtration index,"Human erythrocytes [2]; diamide-crosslinked cells, reversal of the cross-linking with 10 mM dithioerythritol",0.90 ± 0.01
